Results as given in patent publication US8889874B2, “Imidazolone-chalcone derivatives as potential anticancer agent and process for the preparation thereof” (Council of Scientific and Industrial Research, priority 2010, dated 2014).
Read-outs that look alike come from different tables or passages of the source.

What was measured:
Type in all cases: cell-based, human
[1] = tested on: Non-small cell lung cancer cell lines; assay: NCI anticancer screen, SRB assay, panel summary; conditions: Homo sapiens
Method: (§1) Some of biological activity studies were carried out at the National Cancer Institute (NCI), Maryland, USA.
(§2) The compounds were evaluated for anticancer activity against fifty three human cancer cells derived from nine cancer types (leukemia cell line, non-small-cell lung cell line, colon cell line, CNS cell line, melanoma cell line, ovarian cell line, prostate cell line, and breast cancer cell line) as shown in Table 1. For each compound, dose response curves for each cell line were measured at a minimum of five concentrations at 10 fold dilutions. A protocol of 48 h continuous drug exposure was used and a sulforhodamine B (SRB) protein assay was used to estimate cell viability or growth.

CNS cancer cell lines = assay: NCI anticancer screen, SRB assay, panel summary; conditions: for GI50: Homo sapiens
Method: as §1, §2

Renal cancer cell lines = assay: NCI anticancer screen, SRB assay, panel summary; conditions: Homo sapiens
Method: as §1, §2

Colon cancer cell lines = assay: NCI anticancer screen, SRB assay, panel summary; conditions: for GI50: Homo sapiens
Method: as §1, §2

[2] = tested on: Ovarian cancer cell lines; assay: NCI anticancer screen, SRB assay, panel summary; conditions: Homo sapiens
Method: as §1, §2

[3] = tested on: Melanoma cancer cell lines; assay: NCI anticancer screen, SRB assay, panel summary; conditions: for GI50: Homo sapiens
Method: as §1, §2

Breast cancer cell lines = assay: NCI anticancer screen, SRB assay, panel summary; conditions: Homo sapiens
Method: as §1, §2

[4] = tested on: Leukemia cancer cell lines; assay: NCI anticancer screen, SRB assay, panel summary; conditions: Homo sapiens
Method: as §1, §2

[5] = tested on: A549/ATCC (non-small cell lung); assay: NCI anticancer screen, SRB assay, 48 h; conditions: Homo sapiens
Method: as §1, §2

[6] = tested on: NCI-H460 (non-small cell lung); assay: NCI anticancer screen, SRB assay, 48 h; conditions: Homo sapiens
Method: as §1, §2

HS 578T (breast) = assay: NCI anticancer screen, SRB assay, 48 h; conditions: Homo sapiens
Method: as §1, §2

[7] = tested on: EKVX (non-small cell lung); assay: NCI anticancer screen, SRB assay, 48 h; conditions: Homo sapiens
Method: as §1, §2

ACHN (renal) = assay: NCI anticancer screen, SRB assay, 48 h; conditions: Homo sapiens
Method: as §1, §2

SN12C (renal) = assay: NCI anticancer screen, SRB assay, 48 h; conditions: Homo sapiens, SN12C
Method: as §1, §2

SK-OV-3 (ovarian) = assay: NCI anticancer screen, SRB assay, 48 h; conditions: Homo sapiens
Method: as §1, §2

[8] = tested on: NCI-H226 (non-small cell lung); assay: NCI anticancer screen, SRB assay, 48 h; conditions: Homo sapiens
Method: as §1, §2

786-0 (renal) = assay: NCI anticancer screen, SRB assay, 48 h; conditions: Homo sapiens
Method: as §1, §2

OVCAR-8 (ovarian) = assay: NCI anticancer screen, SRB assay, 48 h; conditions: Homo sapiens
Method: as §1, §2

A498 (renal) = assay: NCI anticancer screen, SRB assay, 48 h; conditions: Homo sapiens
Method: as §1, §2

UACC-257 (melanoma) = assay: NCI anticancer screen, SRB assay, 48 h; conditions: Homo sapiens
Method: as §1, §2

KM12 (colon) = assay: NCI anticancer screen, SRB assay, 48 h; conditions: Homo sapiens
Method: as §1, §2

SK-MEL-5 (melanoma) = assay: NCI anticancer screen, SRB assay, 48 h; conditions: Homo sapiens
Method: as §1, §2

SK-MEL-28 (melanoma) = assay: NCI anticancer screen, SRB assay, 48 h; conditions: Homo sapiens
Method: as §1, §2

SW-620 (colon) = assay: NCI anticancer screen, SRB assay, 48 h; conditions: Homo sapiens
Method: as §1, §2

[9] = tested on: K-562 (leukemia cell line); assay: NCI anticancer screen, SRB assay, 48 h; conditions: Homo sapiens
Method: as §1, §2

SF-539 (CNS) = assay: NCI anticancer screen, SRB assay, 48 h; conditions: Homo sapiens
Method: as §1, §2

[10] = tested on: NCI-H23 (non-small cell lung); assay: NCI anticancer screen, SRB assay, 48 h; conditions: Homo sapiens
Method: as §1, §2

CAKI-1 (renal) = assay: NCI anticancer screen, SRB assay, 48 h; conditions: Homo sapiens
Method: as §1, §2

TD-47D (breast) = assay: NCI anticancer screen, SRB assay, 48 h; conditions: Homo sapiens
Method: as §1, §2

MALME-3M (melanoma) = assay: NCI anticancer screen, SRB assay, 48 h; conditions: Homo sapiens
Method: as §1, §2

SNB-19 (CNS) = assay: NCI anticancer screen, SRB assay, 48 h; conditions: Homo sapiens
Method: as §1, §2

[11] = tested on: HOP-92 (non-small cell lung); assay: NCI anticancer screen, SRB assay, 48 h; conditions: Homo sapiens
Method: as §1, §2

[12] = 48 h exposure, SRB, read-out: GI50
[13] = read-out: pGI50 (-log of molar concentration causing 50% inhibition of net cell growth) (converted)

## O=C(/C=C/c1cccc(O)c1)c1cccc(-n2cc(-c3ccc(Cl)cc3)[nH]c2=O)c1 [4f, 4-(4-chlorophenyl)-1-3-[(E)-3-(3-hydroxyphenyl)-2-propenoyl]phenyl-2,3-dihydro-1H-2-imidazolone]
[1]; Non-small cell lung panel, log of concentration in mol/L causing 50% inhibition of net cell growth, read-out: mean graph midpoint (MG_MID) of Log10 GI50 (converted)
  GI50: 2.34 µM
[1]; Non-small cell lung panel, log of concentration leading to 50% net cell death, read-out: mean graph midpoint (MG_MID) of Log10 LC50 (converted)
  LC50: 57.5 µM
[1]; nine non-small cell lung cancer cell lines, exposure at least 48 hrs, read-out: GI50, range over the panel
  GI50: 1.6 to 3.55 µM
CNS cancer cell lines; CNS panel, log of concentration leading to 50% net cell death
  mean graph midpoint (MG_MID) of Log10 LC50: 4.87
CNS cancer cell lines; CNS panel, log of concentration in mol/L causing 50% inhibition of net cell growth, read-out: mean graph midpoint (MG_MID) of Log10 GI50 (converted)
  GI50: 1.45 µM
CNS cancer cell lines; six CNS cancer cell lines, exposure at least 48 hrs, read-out: GI50, range over the panel
  GI50: 0.58 to 1.92 µM
Renal cancer cell lines; Renal panel, log of concentration in mol/L causing 50% inhibition of net cell growth, read-out: mean graph midpoint (MG_MID) of Log10 GI50 (converted)
  GI50: 1.78 µM
Renal cancer cell lines; Renal panel, log of concentration leading to 50% net cell death, read-out: mean graph midpoint (MG_MID) of Log10 LC50 (converted)
  LC50: 27.5 µM
Renal cancer cell lines; eight renal cancer cell lines, exposure at least 48 hrs, read-out: GI50, range over the panel
  GI50: 0.55 to 3.71 µM
Colon cancer cell lines; Colon panel, log of concentration leading to 50% net cell death
  mean graph midpoint (MG_MID) of Log10 LC50: 4.68
Colon cancer cell lines; Colon panel, log of concentration in mol/L causing 50% inhibition of net cell growth, read-out: mean graph midpoint (MG_MID) of Log10 GI50 (converted)
  GI50: 2.34 µM
Colon cancer cell lines; seven colon cancer cell lines, exposure at least 48 hrs, read-out: GI50, range over the panel
  GI50: 1.23 to 13.7 µM
[2]; Ovarian panel, log of concentration in mol/L causing 50% inhibition of net cell growth, read-out: mean graph midpoint (MG_MID) of Log10 GI50 (converted)
  GI50: 2.04 µM
[2]; Ovarian panel, log of concentration leading to 50% net cell death, read-out: mean graph midpoint (MG_MID) of Log10 LC50 (converted)
  LC50: 46.8 µM
[2]; six ovarian cancer cell lines, exposure at least 48 hrs, read-out: GI50, range over the panel
  GI50: 0.99 to 4.21 µM
[3]; Melanoma panel, log of concentration in mol/L causing 50% inhibition of net cell growth, read-out: mean graph midpoint (MG_MID) of Log10 GI50 (converted)
  GI50: 2.19 µM
[3]; nine melanoma cancer cell lines, exposure at least 48 hrs, read-out: GI50, range over the panel
  GI50: 1.53 to 4.07 µM
[3]; Melanoma panel, log of concentration leading to 50% net cell death
  mean graph midpoint (MG_MID) of Log10 LC50: 4.55
Breast cancer cell lines; Breast panel, log of concentration in mol/L causing 50% inhibition of net cell growth, read-out: mean graph midpoint (MG_MID) of Log10 GI50 (converted)
  GI50: 2.19 µM
Breast cancer cell lines; Breast panel, log of concentration leading to 50% net cell death, read-out: mean graph midpoint (MG_MID) of Log10 LC50 (converted)
  LC50: 63.1 µM
Breast cancer cell lines; five breast cancer cell lines, exposure at least 48 hrs, read-out: GI50, range over the panel
  GI50: 1.29 to 4 µM
[4]; Leukemia panel, log of concentration in mol/L causing 50% inhibition of net cell growth, read-out: mean graph midpoint (MG_MID) of Log10 GI50 (converted)
  GI50: 0.794 µM
[4]; Leukemia panel, log of concentration leading to 50% net cell death, read-out: mean graph midpoint (MG_MID) of Log10 LC50 (converted)
  LC50: 87.1 µM
[4]; two leukemia cancer cell lines (RPMI-8226 and K-562), exposure at least 48 hrs, read-out: GI50, range over the panel
  GI50: 0.4 to 1.55 µM
[5]; [12]
  GI50: 3.55 µM
[5]; [13]
  GI50: 3.55 µM
[6]; [12]
  GI50: 2.41 µM
[6]; [13]
  GI50: 2.4 µM
HS 578T (breast); [12]
  GI50: 4 µM
HS 578T (breast); [13]
  GI50: 3.98 µM
[7]; [12]
  GI50: 2.4 µM
[7]; [13]
  GI50: 2.4 µM
ACHN (renal); [12]
  GI50: 1.84 µM
ACHN (renal); [13]
  GI50: 1.82 µM
SN12C (renal); SN 12C, read-out: pGI50 (-log of molar concentration causing 50% inhibition of net cell growth) (converted)
  GI50: 1.95 µM
SN12C (renal); [12]
  GI50: 1.95 µM
SK-OV-3 (ovarian); [12]
  GI50: 4.21 µM
SK-OV-3 (ovarian); [13]
  GI50: 4.17 µM
[8]; [12]
  GI50: 2.31 µM
[8]; [13]
  GI50: 2.29 µM
786-0 (renal); [12]
  GI50: 1.57 µM
786-0 (renal); [13]
  GI50: 1.58 µM
OVCAR-8 (ovarian); [12]
  GI50: 0.99 µM
OVCAR-8 (ovarian); [13]
  GI50: 1 µM
A498 (renal); [12]
  GI50: 3.71 µM
A498 (renal); [13]
  GI50: 3.72 µM
UACC-257 (melanoma); [12]
  GI50: 4.07 µM
UACC-257 (melanoma); [13]
  GI50: 4.07 µM
KM12 (colon); [12]
  GI50: 1.34 µM
KM12 (colon); [13]
  GI50: 1.35 µM
SK-MEL-5 (melanoma); [12]
  GI50: 1.53 µM
SK-MEL-5 (melanoma); [13]
  GI50: 1.51 µM
SK-MEL-28 (melanoma); [12]
  GI50: 3.64 µM
SK-MEL-28 (melanoma); [13]
  GI50: 3.63 µM
SW-620 (colon); [12]
  GI50: 1.62 µM
SW-620 (colon); [13]
  GI50: 1.62 µM
[9]; K562, 48 h exposure, SRB, read-out: GI50
  GI50: 0.4 µM
[9]; K562, read-out: pGI50 (-log of molar concentration causing 50% inhibition of net cell growth) (converted)
  GI50: 0.398 µM
SF-539 (CNS); [12]
  GI50: 1.68 µM
SF-539 (CNS); [13]
  GI50: 1.7 µM
[10]; [12]
  GI50: 2.78 µM
[10]; [13]
  GI50: 2.75 µM
CAKI-1 (renal); [12]
  GI50: 1.72 µM
CAKI-1 (renal); [13]
  GI50: 1.74 µM
TD-47D (breast); [12]
  GI50: 1.92 µM
TD-47D (breast); [13]
  GI50: 1.91 µM
MALME-3M (melanoma); Malme-3M, read-out: pGI50 (-log of molar concentration causing 50% inhibition of net cell growth) (converted)
  GI50: 1.82 µM
MALME-3M (melanoma); MALME-3M, 48 h exposure, SRB, read-out: GI50
  GI50: 1.83 µM
SNB-19 (CNS); [12]
  GI50: 1.92 µM
SNB-19 (CNS); [13]
  GI50: 1.91 µM
[11]; [12]
  GI50: 1.6 µM
[11]; [13]
  GI50: 1.58 µM
